System: strains of Enterobacteriaceae producing various carbapenemases (class A, D and B; 104 strains)
Assay: Antibiotics potentiation by Compound 27 (MIC; meropenem, doripenem, ertapenem, cefepime)
Assay type: cell-based
Settings: + 27 = with Compound 27 at fixed 4 μg/ml

SMILES: C[C@@H](O)[C@H]1C(=O)N2C(C(=O)O)=C(S[C@@H]3CN[C@H](C(=O)N(C)C)C3)[C@H](C)[C@H]12 [M]
- MIC (strain KP1081 Klebsiella pneumoniae (NDM-1, TEM-1, SHV-11, CMY-6, CTX-M-15)): Z (MIC of greater than 10 μg/mL)
- MIC (strain KP1082 Klebsiella pneumoniae (KPC-2, SHV-1)): Y (MIC of 1 μg/mL to 10 μg/mL)
- MIC (strain KP1083 Klebsiella pneumoniae (KPC-3, SHV-1, TEM-1)): Y (MIC of 1 μg/mL to 10 μg/mL)
- MIC (strain KP1084 Klebsiella pneumoniae (KPC-3, SHV-11, TEM-1)): Z (MIC of greater than 10 μg/mL)
- MIC (strain KP1086 Klebsiella pneumoniae (OXA-48, CTX-M-15, TEM, SHV)): Z (MIC of greater than 10 μg/mL)
- MIC (strain KP1087 Klebsiella pneumoniae (KPC-2, CTX-M-15, SHV-11, TEM-1)): Z (MIC of greater than 10 μg/mL)
- MIC (strain KP1088 Klebsiella pneumoniae (KPC-3, SHV-11, TEM-1)): Y (MIC of 1 μg/mL to 10 μg/mL)
- MIC (strain KP1089 Klebsiella pneumonias (OXA-181, CTX-M-15, TEM, SHV)): Y (MIC of 1 μg/mL to 10 μg/mL)
- MIC (strain KP1095 Klebsiella pneumoniae (KPC-2 TEM-1 SHV-1)): Y (MIC of 1 μg/mL to 10 μg/mL)
- MIC (strain KP1096 Klebsiella pneumoniae (KPC-2 TEM-181 SHV-11)): Y (MIC of 1 μg/mL to 10 μg/mL)
- MIC (strain KP1097 Klebsiella pneumonias (IMP-1)): Z (MIC of greater than 10 μg/mL)
- MIC (strain KP1098 Klebsiella pneumoniae (IMP-26)): Z (MIC of greater than 10 μg/mL)
- MIC (strain KP1104 Klebsiella pneumoniae (KPC TEM)): Z (MIC of greater than 10 μg/mL)
- MIC (strain KP1105 Klebsiella pneumoniae (KPC TEM SHV)): Z (MIC of greater than 10 μg/mL)
- MIC (strain KP1159 Klebsiella pneumoniae (SHV-1(2b); CTX-M-15; IMP-4)): Z (MIC of greater than 10 μg/mL)
- MIC (strain KP1160 Klebsiella pneumoniae (SHV-28(2be); CTX-M-15; IMP-26)): Z (MIC of greater than 10 μg/mL)
- MIC (strain KP1161 Klebsiella pneumoniae (NDM-1)): Z (MIC of greater than 10 μg/mL)
- MIC (strain KP1164 Klebsiella pneumoniae (SHV-12(2be); VIM-1)): Z (MIC of greater than 10 μg/mL)
- MIC (strain KP1165 Klebsiella pneumoniae (SHV-11(2b); CTX-M-15; VIM-27)): Z (MIC of greater than 10 μg/mL)
- MIC (strain KP1166 Klebsiella pneumoniae (SHV-5(2be); VIM-26)): Z (MIC of greater than 10 μg/mL)
- MIC (strain KP1167 Klebsiella pneumoniae (SHV-12(2be); VIM-1)): X (MIC of less than 1 μg/mL)
- MIC (strain KP1169 Klebsiella pneumoniae (SHV-11(2b); VIM-1)): Z (MIC of greater than 10 μg/mL)
- MIC (strain KP1170 Klebsiella pneumoniae (SHV-11(2b); CTX-M-15; NDM-1)): Z (MIC of greater than 10 μg/mL)
- MIC (strain KP1172 Klebsiella pneumoniae (SHV-31(2be); DHA-1; VIM-1)): Y (MIC of 1 μg/mL to 10 μg/mL)
- MIC (strain KP1173 Klebsiella pneumoniae (TEM-33(2br); CTX-M-15; IMP-1)): Y (MIC of 1 μg/mL to 10 μg/mL)
- MIC (strain KP1174 Klebsiella pneumoniae (CTX-M-14; IMP-1)): Y (MIC of 1 μg/mL to 10 μg/mL)
- MIC (strain KP1175 Klebsiella pneumoniae (SHV-OSBL(2b); VIM-1)): Z (MIC of greater than 10 μg/mL)
- MIC (strain KP1177 Klebsiella pneumoniae (SHV-OSBL(2b), TEM-OSBL(2b); CTX-M-15; NDM-1)): Z (MIC of greater than 10 μg/mL)
- MIC (strain KP1178 Klebsiella pneumoniae (SHV-OSBL(2b;) TEM-OSBL(2b); CTX-M-15; NDM-1)): Z (MIC of greater than 10 μg/mL)
- MIC (strain KP1179 Klebsiella pneumoniae (SHV-12(2be), TEM-OSBL(2b); CTX-M-15; NDM-7)): Z (MIC of greater than 10 μg/mL)
- MIC (strain KP1180 Klebsiella pneumoniae (SHV-OSBL(2b), TEM-OSBL(2b); CTX-M-15; DHA-1; IMP-26)): Y (MIC of 1 μg/mL to 10 μg/mL)
- MIC (strain KP1181 Klebsiella pneumoniae (SHV-OSBL(2b); CTX-M-15; IMP-26)): Y (MIC of 1 μg/mL to 10 μg/mL)
- MIC (strain KP1183 Klebsiella pneumoniae (SHV-OSBL(2b), TEM-OSBL(2b); CTX-M-15; NDM-1)): Z (MIC of greater than 10 μg/mL)
- MIC (strain KP1184 Klebsiella pneumoniae (SHV-OSBL(2b); IMP-1)): Y (MIC of 1 μg/mL to 10 μg/mL)
- MIC (strain KP1185 Klebsiella pneumoniae (SHV-OSBL(2b), TEM-OSBL(2b); IMP-4)): Z (MIC of greater than 10 μg/mL)
- MIC (strain KP1186 Klebsiella pneumoniae (CTX-M-15; NDM-1)): Z (MIC of greater than 10 μg/mL)
- MIC (strain KP1187 Klebsiella pneumoniae (SHV-55(2be), TEM-OSBL(2b); CTX-M-15; NDM-1)): Z (MIC of greater than 10 μg/mL)
- MIC (strain KP1188 Klebsiella pneumoniae (SHV-OSBL(2b); CTX-M-15; NDM-1)): Z (MIC of greater than 10 μg/mL)
- MIC (strain KP1189 Klebsiella pneumoniae (TEM-OSBL(2b); CTX-M-15; CTX-M-27; NDM-1)): Z (MIC of greater than 10 μg/mL)
- MIC (strain KPM1123 Klebsiella pneumoniae (KPC-2 TEM SHV)): Z (MIC of greater than 10 μg/mL)
- MIC (strain KPM1202 Klebsiella pneumoniae (KPC SHV TEM)): Y (MIC of 1 μg/mL to 10 μg/mL)
- MIC (strain KPM1203 Klebsiella pneumoniae (KPC SHV TEM)): Y (MIC of 1 μg/mL to 10 μg/mL)
- MIC (strain KPM1344 Klebsiella pneumoniae (VIM-1)): Y (MIC of 1 μg/mL to 10 μg/mL)
- MIC (strain KPM1345 Klebsiella pneumoniae (VIM-1 SHV)): Z (MIC of greater than 10 μg/mL)
- MIC (strain KPM1347 Klebsiella pneumoniae (NDM-1 SHV CTX-M-15)): Z (MIC of greater than 10 μg/mL)
- MIC (strain KX1017 Klebsiella oxytoca (KPC-2, OXA-2, SHV-30)): Y (MIC of 1 μg/mL to 10 μg/mL)
- MIC (strain KX1018 Klebsiella oxytoca (KPC-2, SHV-40, OXY-1)): Y (MIC of 1 μg/mL to 10 μg/mL)
- MIC (strain KX1019 Klebsiella oxytoca (KPC-2, OXA-2)): Y (MIC of 1 μg/mL to 10 μg/mL)
- MIC (strain PM1024 Proteus mirabilis (TEM-1(2b); CMY-16; VIM-1)): Y (MIC of 1 μg/mL to 10 μg/mL)
- MIC (strain PM1026 Proteus mirabilis (DHA-1; IMP-26)): Z (MIC of greater than 10 μg/mL)
- MIC (strain PM1027 Proteus mirabilis (VIM-5)): Z (MIC of greater than 10 μg/mL)
- MIC (strain SM1023 Serratia marcescens (VIM-4)): Z (MIC of greater than 10 μg/mL)
